By melting point is commonly meant the temperature, or range, at which the solid turns liquid.

As for `CN(C)c1ncnn2c([C@@H]3O[C@H](CO)[C@@H](O)[C@@]3(C)O)ccc12` [Example 2, (2S,3R,4R,5R)-2-(4-(Dimethylamino)pyrrolo[1,2-f][1,2,4]triazin-7-yl)-5-(hydroxymethyl)-3-methyltetrahydrofuran-3,4-diol], the melting point came to 181 °C.

In turn, `C=Cc1cc([C@@H]2O[C@H](CO)[C@@H](O)[C@@]2(C)O)n2ncnc(N)c12` [Example 4, (2S,3R,4R,5R)-2-(4-Amino-5-vinylpyrrolo[1,2-f][1,2,4]triazin-7-yl)-5-(hydroxymethyl)-3-methyltetrahydrofuran-3,4-diol] gave a melting point of 128 to 131 °C.

The values above are taken from US8440813B2, “Antiviral nucleoside analogs” (BioCryst Pharmaceuticals, Inc., priority 2007, dated 2013).
